Reference: patent publication US6867015B1, “Rapid microbiological test for the detection of antibacterial compounds” (Gist-Brocades B.V., priority 1995, dated 2005)

Tests used:
Format in all cases: cell-based
[1] = tested on: Bacillus stearothermophilus var. calidolactis spores C953; assay: Test type C: microtiterplates with agar medium containing trimethoprim, milk sample
Method: For the preparation of the test plates (test type C) the procedure described in Example I was followed except that the nutrients described in Example III (dextrose, tryptose and yeast extract) were not added separately but were added to the initial agar medium in the same concentration as described in Example I. Also together with the buffer solution an amount of trimethoprim solution was added to give a final concentration of 60 μg per litre. To the wells of sterile microtiterplates 20 μl of the agar solution was added under asceptic conditions. The plates were immediately sealed with aluminium foil. The plates were stored at a temperature between 5° C. and 15° C. An amount of penicillin G of 3 ppb was added to fresh cow's milk. […] The control sample contained no penicillin G or sulphadiazine. The microtiterplates were opened by removing the seal. Then 20 μl of each of the three milk samples was added to each of the test plates (duplo) containing different concentrations of Bacillus stearothermophilus var. calidolactis spores […]. The plates were immediately placed in a waterbath kept at 64° C. Observations were made after 30 minutes to 150 minutes. The time at which the colour of the agar medium became yellow was determined. As is shown in table 2, the test duration correlated with the amount of spores added to the agar medium without influencing the sensitivity of the test in a negative way.

[2] = tested on: Bacillus stearothermophilus var. calidolactis C953 spores; assay: Test type A: agar test tubes with bromocresolpurple and nutrient tablet, milk sample; details: fresh cow's milk, 64° C.
Method: Test tubes of type A contained an agar medium prepared as follows: A solution was made of 12 g agar, 9 g sodium chloride and 50 ml of a 0.1 M triethanolamine buffer solution (pH=8.0) in 1000 ml distilled water. An amount of a solution of bromocresolpurple to give a final concentration of 20 mg per 1000 ml was also added. The final solution was sterilized for 20 minutes at 121° C. and cooled to about 60° C. To this solution different amounts of a suspension of Bacillus stearothermophilus var. calidolactis […] spores in distilled water were added to give final concentrations between 10^5 and 10^10 spores per ml. Sterile tubes with a diameter of about 9 mm were filled with 0.3 ml of the agar solution under aseptic conditions and immediately sealed, e.g. with aluminium foil. The agar solution in the test tubes was allowed to solidify in the test tubes while the test tubes were held in an upright position. The tubes were stored at a temperature between 5° C. and 15° C. A mixture was made of 100 g dextrose, 160 g Avicel PH101, 50 g tryptose, 14 g yeast extract and 15 g precirol. This mixture was sufficient to prepare about 18000 tablets with a diameter of approximately 3 mm and a thickness of approximately 1.9 mm. […] The time at which the colour of the agar medium became yellow was determined. […]

[3] = tested on: Streptococcus thermophilus T101 (DSM 4022); assay: Test type D: detection of antibiotics in milk without agar, bromocresolpurple; details: test duration of 80 minutes
Method: In this experiment Streptococcus thermophilus […] (DSM 4022) was sed for the determination of antibiotics in milk. Streptococcus thermophilus […] was grown using methods known per se. An amount of a solution of bromocresolpurple to give a final concentration of […] was added to fresh cow's milk. To part of the fresh cow's milk also an amount of penicillin G of 4 ppb added. The control sample contained no penicillin G. To the milk samples different amounts of Streptococcus thermophilus […] were added to give final concentrations between 10^7 and 10^9 CFU per ml. Immediately after preparation of the samples sterile tubes with a diameter of about 9 mm were filled with 0.3 ml of each milk sample (duplo). The tubes were immediately placed in a waterbath kept at 42° C. Observations were made after 30 minutes to 2 hours and 30 minutes. The time at which the colour of the agar medium became yellow was determined. As is shown in table 3, the test duration correlated with the amount of cells added to the milk without influencing the sensitivity of the test in a negative way.

[4] = tested on: Bacillus stearothermophilus var. calidolactis C953 spores; assay: Test type B: agar test tubes with Brilliant Black and Toluidine Blue, milk sample
Method: Test tubes of type B contained an agar medium prepared as follows: A solution was made of 10 g agar, 9 g sodium chloride, 2 g glucose, 2 g peptone, 2 g tryptone, 4 g yeast extract and 50 ml of a 0.1 M triethanolamine buffer solution (pH=8.0) in 1000 ml distilled water. The final solution was sterilized for 20 minutes at 121° C. and cooled to about 60° C. An amount of a solution of Brilliant Black to give a final concentration of 80 mg per 1000 ml and an amount of a solution of Toluidine Blue to give a final concentration of 3 mg per 1000 ml were also added. To this solution different amounts of a suspension of Bacillus stearothermophilus var. caildolactis C953 spores In distilled water were added to give final concentrations between 10^8 and 10^10 spores per ml. Sterile tubes with a diameter of about 9 mm were filled with 0.3 ml of the agar solution under aseptic conditions and Immediately sealed e.g. with an aluminum foil. The agar solution In the test tubes was allowed to solidity in the test tubes while the test tubes were held in an upright position. The tubes were stored at a temperature between 5° C. and 15° C. An amount of penicillin G of 0.003 I.U. per ml was added to fresh cow's milk. The control sample contained no penicillin G. Two of each of the test tubes of type B with concentrations of Bacillus stearothermophilus var. calidolactis spores as described in Example II were opened by removing the seal. Then 0.1 ml of each of the two milk samples was added to each of the test tubes and the test tubes were immediately placed in a waterbath kept at 64° C. Observations were made after 30 minutes to 3 hours. The time at which the colour of the agar medium became yellow was determined. As is shown in Table 1, the test duration correlated with the amount of spores added to the agar medium without influencing the sensitivity of the test in a negative way.

## CC1(C)S[C@@H]2[C@H](NC(=O)Cc3ccccc3)C(=O)N2[C@H]1C(=O)O [penicillin G]
[1]; test duration of 80 minutes
  concentration that can be detected: 3 ppb
[1]; test duration of 90 minutes
  concentration that can be detected: 3 ppb
[2]
  detectable amount of antibacterial compound (agar medium blue): ≥ 0.003 I.U. per ml
[3]
  concentration that can be detected: ≥ 4 ppb
[4]; as little as 70 minutes, test organism more than 10^7 CFU per ml
  concentration detected in a milk sample: 0.003 IU/ml
[4]; test type B, test duration of 70 minutes, milk
  concentration that can be detected: 0.003 I.U. per ml
[4]; test unit of 0.3 ml agar solution in upright test tube of internal diameter 9 mm
  concentration detected in a milk sample: 0.003 lU/ml

## Nc1ccc(S(=O)(=O)Nc2ncccn2)cc1 [sulphadiazine]
[1]; test duration of 90 minutes
  concentration that can be detected: 100 ppb
